The target in one assay is AII receptor. In words: Angiotensin II receptor binding (displacement of 3H-AII). The settings on record: read-out: Angiotensin II Receptor Binding IC50, rat adrenal cortical microsomes, 2 nM 3H-AII, 1 hour, room temperature. Here is the method: The assay was carried out according to the method described by [Glossmann et al., J. Biol. Chem., 249, 825 (1974)], but with some modifications. The reaction mixture contained rat adrenal cortical microsomes (source of AII receptor) in Tris buffer and 2 nM of ^3 H-AII with or without potential AII antagonist. This mixture was incubated for 1 hour at room temperature and the reaction was subsequently terminated by rapid filtration and rinsing through glass micro-fibre filter. Receptor-bound ^3 H-AII trapped in filter was quantitated by scintillation counting.
(§1) Compounds listed in Table 26 were tested in the same manner as described for Table 25, except that in the test for antihypertensive effects in renal hypertensive rats, the compounds were administered orally at 30 mg/kg and intravenously at 3 mg/kg.
In general terms: In a radioligand displacement assay an active substance lowers the binding of a labelled ligand.

The test system of a further assay is Renal Hypertensive Rats. Kind of assay: Antihypertensive effects in renal hypertensive rats.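 As to all read-outs here: effective means a significant fall in blood pressure at the dose shown or below.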 In kind it is in vivo. To be noted: Rattus norvegicus; for minimal effective dose at 10 mg/kg / minimal effective dose at 100 mg/kg: Table 25; for minimal effective dose at 10 mg/kg / minimal effective dose at 3 mg/kg: intravenous; for minimal effective dose at 10 mg/kg: 10 mg/kg or less; for minimal effective dose at 100 mg/kg / minimal effective dose at 30 mg/kg: oral; for minimal effective dose at 100 mg/kg: 100 mg/kg or less; for minimal effective dose at 3 mg/kg / minimal effective dose at 30 mg/kg: Table 26. How it is done: This procedure increases blood pressure by increasing renin production with consequent elevation of AII levels. Compounds are administered orally at 100 mg/kg and/or intravenously via a cannula in the jugular vein at 10 mg/kg. Arterial blood pressure is continuously measured directly through a carotid artery cannula and recorded using a pressure transducer and a polygraph. Blood pressure levels after treatment are compared to pretreatment levels to determine the antihypertensive effects of the compounds (See Table 25).
as §1

Setting [1] is: Table 25, tested as sodium salt.

This note sets out measurements from patent US5138069A (E. I. Du Pont de Nemours and Company, priority 1988, dated 1992).

Each structure is given as a SMILES string. Where two headings read alike, the source gives them in different places. Bounds are passed on as bounds.

In general, IC50 refers to the concentration that inhibits the measured activity by half. Usually minimal effective dose stands for the lowest level tested that produced the effect sought.

Turning to `CCCCc1nc(Cl)c(Cn2ccnc2)n1Cc1ccc(C(=O)c2ccccc2C(=O)O)cc1` [Example 205], the concentration for half-maximal inhibition (IC50) at AII receptor (setting [1]) turned out to be 2500 nM. As to `CCCCc1nc(Cl)c(COC(C)=O)n1Cc1ccc(C(=O)O)cc1` [Example 20, 5-Acetoxymethyl-2-butyl-1-(4-carboxybenzyl)-4-chloroimidazole], at AII receptor (setting [1]), the IC50 came to 5300 nM. With `CCCCc1nc(Cl)c(CO)n1Cc1ccc(N2C(=O)c3ccccc3C2=O)cc1` [Example 28, 2-Butyl-4-chloro-5-hydroxymethyl-1-(4-N-phthalimidobenzyl)imidazole], the concentration for half-maximal inhibition (IC50) on AII receptor (Table 25) amounted to 8000 nM.

Consider `CCCCc1nc(Cl)c(COC)n1Cc1ccc(C(=O)N2CCC[C@H]2C(=O)O)cc1` [Example 83], for which, at AII receptor (Table 25), the 50% inhibitory concentration (IC50) was 6400 nM.

For the compound `CCCCc1nc(Cl)c(CC(=O)OC)n1Cc1ccc(NC(=O)c2cc3ccccc3cc2C(=O)O)cc1` [Example 9], at AII receptor (setting [1]), the concentration for half-maximal inhibition (IC50) amounted to 5800 nM.

`CCCCc1nc(Cl)c(COC(C)=O)n1Cc1ccc(NC(=O)c2ccccc2C(=O)O)cc1` [Example 10]: the IC50 on AII receptor (setting [1]) was 190 nM. `CCCCc1nc(Cl)c(/C=C/COC(C)=O)n1Cc1ccc(NC(=O)c2ccccc2C(=O)O)cc1` [Example 231, 3-[2-Butyl-4-chloro-1-(4-(2-carboxybenzamido)benzyl)imidazol-5-yl]-3-propen-1-ol acetate, E isomer]: the half-inhibitory concentration (IC50) on AII receptor (Table 25) was found to be 76 nM. As to `CCCCc1nc(Cl)c(CC(=O)O)n1Cc1ccc(NS(=O)(=O)C(F)(F)F)cc1` [Example 25], the IC50 at AII receptor (Table 25) is 3900 nM. For the compound `CCCCc1nc(Cl)c(CC(=O)OC)n1Cc1ccc(NC(=O)/C=C\C(=O)O)cc1` [Example 6], the IC50 on AII receptor (Table 25) was 5700 nM.

Take `CCCc1nc(C(F)(F)C(F)(F)F)c(CO)n1Cc1ccc(-c2ccccc2-c2nn[nH]n2)cc1` [Example 124F]: at AII receptor (Table 26), the half-inhibitory concentration (IC50) worked out at 1 nM.

Consider `CCCCc1nc(Cl)c(COC)n1Cc1ccc(C(=O)N[C@@H](Cc2ccccc2)C(=O)O)cc1` [Example 82], for which, at AII receptor (Table 25), the IC50 is 6100 nM. Still for that read-out and setting: then `CCCCc1nc(Cl)c(Cc2nn[nH]n2)n1Cc1ccc(NC(=O)c2ccccc2NS(=O)(=O)C(F)(F)F)cc1` [Example 52], with 1100 nM. For the compound `CCCCCc1nccn1Cc1ccc(NC(=O)c2ccccc2NS(=O)(=O)C(F)(F)F)cc1` [Example 60], the concentration for half-maximal inhibition (IC50) on AII receptor (Table 25) came to 1200 nM. On to `CCCCc1nc(Cl)c(CO)n1Cc1ccc(-c2occc2C(=O)O)cc1` (single isomer, unassigned) [Example 178, 2-n-Butyl-1-[4-(3-carboxyfuran-2-yl)benzyl]-4-chloro-5-(hydroxymethyl)imidazole], for which, in the assay on Renal Hypertensive Rats, the minimal effective dose at 10 mg/kg is below 10 mg/kg and the minimal effective dose at 100 mg/kg was below 100 mg/kg.

As for `CCCCc1nc(Cl)c(COC)n1Cc1ccc(-c2ccccc2C(=O)Nc2nnn[nH]2)cc1` [Example 173, 2-n-Butyl-4-chloro-5-methoxymethyl-1-[(2'-((tetrazol-5-yl)aminocarbonyl)biphenyl-4-yl)-methyl]imidazole], the minimal effective dose at 10 mg/kg in the assay with Renal Hypertensive Rats (tested as sodium salt) was below 10 mg/kg. For the compound `CC/C=C/c1nc(Cl)c(CO)n1Cc1ccc(-c2ccccc2C(=O)O)cc1` [Example 128, 1-[(2'-Carboxybiphenyl-4-yl)-methyl]-2-(1-trans-butenyl)-4-chloro-5-hydroxymethylimidazole], in the assay on Renal Hypertensive Rats, the minimal effective dose at 10 mg/kg is below 10 mg/kg and the minimal effective dose at 100 mg/kg is below 100 mg/kg. In the assay on Renal Hypertensive Rats, `CCCCc1nc(Cl)c(CO)n1Cc1ccc(OCc2ccccc2C(=O)O)cc1` [Example 195] yielded a minimal effective dose at 10 mg/kg below 10 mg/kg and a minimal effective dose at 100 mg/kg below 100 mg/kg. With `CCCCc1nc(Cl)c(/C=C/C(C)O)n1Cc1ccc(NC(=O)c2ccccc2C(=O)O)cc1` (stereo not shown) [Example 243], the half-inhibitory concentration (IC50) at AII receptor (Table 25) stood at 200 nM. In the assay on Renal Hypertensive Rats, `CCCCc1nc(Cl)c(COC)n1Cc1ccc(-c2cccc(C(=O)O)c2)cc1` [Example 86, 1-[(3'-Carboxybiphenyl-4-yl)-methyl]-2-butyl-4-chloro-5-methoxymethylimidazole] displayed a minimal effective dose at 10 mg/kg below 10 mg/kg and a minimal effective dose at 100 mg/kg above 100 mg/kg.

As for `CCC=Cc1nc(Cl)c(CO)n1Cc1ccc(-c2ccccc2-c2nnn[nH]2)cc1` [Example 139], the 50% inhibitory concentration (IC50) on AII receptor (Table 26) was determined as 11 nM. In the assay with Renal Hypertensive Rats, `CCCCc1nc(Cl)c(CC(=O)O)n1Cc1ccc(C(=O)O)cc1` [Example 1, 2-Butyl-1-(4-carboxybenzyl)-4-chloroimidazole-5-acetic acid] displayed a minimal effective dose at 10 mg/kg below 10 mg/kg and a minimal effective dose at 100 mg/kg above 100 mg/kg. In the assay with Renal Hypertensive Rats, `CCCCc1nc(Cl)c(COC(C)=O)n1Cc1ccc(-c2ccccc2C(=O)O)cc1` [Example 121] gave a minimal effective dose at 10 mg/kg below 10 mg/kg and a minimal effective dose at 100 mg/kg below 100 mg/kg.

Compound `CCCCc1nc(Cl)c(COC(C)=O)n1Cc1ccc(OCc2ccccc2C(=O)O)cc1` [Example 199] gave a minimal effective dose at 100 mg/kg in the assay on Renal Hypertensive Rats above 100 mg/kg. As to `CCCCCCc1nc(Cl)c(CO)n1Cc1ccc(-c2ccccc2C(=O)O)cc1` [Example 110], in the assay on Renal Hypertensive Rats, the minimal effective dose at 10 mg/kg was below 10 mg/kg and the minimal effective dose at 100 mg/kg was below 100 mg/kg.

In the assay with Renal Hypertensive Rats, `CCCCc1nc(Cl)c(COC)n1Cc1ccc(NC(=O)c2ccccc2S(=O)(=O)O)cc1` [Example 18a] yielded a minimal effective dose at 3 mg/kg below 3 mg/kg and a minimal effective dose at 30 mg/kg below 30 mg/kg. Turning to `CCCCc1nc(Cl)c(CO)n1Cc1ccc(-c2ccccc2C(=O)NOC)cc1` [Example 180, 1-[(2'-Methoxyaminocarbonylbiphenyl-4-yl)methyl]-2-butyl-4-chloro-5-hydroxymethylimidazole], in the assay with Renal Hypertensive Rats, the minimal effective dose at 10 mg/kg is below 10 mg/kg and the minimal effective dose at 100 mg/kg is above 100 mg/kg. As to `CCCCc1nc(Cl)c(CC(=O)OC)n1Cc1ccc(NC(=O)c2ccccc2C(=O)O)cc1` [Example 2, Methyl 2-butyl-1-[4-(2-carboxybenzamido)benzyl]-4-chloroimidazole-5-acetate], in the assay with Renal Hypertensive Rats (tested as sodium salt), the minimal effective dose at 10 mg/kg is below 10 mg/kg and the minimal effective dose at 100 mg/kg is above 100 mg/kg. In the assay on Renal Hypertensive Rats, `CCCCc1nc(C(F)(F)F)c(CO)n1Cc1ccc(-c2ccccc2-c2nnn[nH]2)cc1` [Example 92B, 2-butyl-5-hydroxymethyl-1-[(2'-(1H-tetrazol-5-yl)biphenyl-4-yl)methyl]-4-trifluoromethylimidazole] yielded a minimal effective dose at 3 mg/kg below 3 mg/kg.

`CCCc1nc(C(F)(F)C(F)(F)F)c(C(=O)O)n1Cc1ccc(-c2ccccc2-c2nn[nH]n2)cc1` [Example 265C]: the minimal effective dose at 3 mg/kg in the assay with Renal Hypertensive Rats is below 3 mg/kg. In the assay on Renal Hypertensive Rats, `CCCCc1nc(Cl)c(CO)n1Cc1ccc(-c2ccccc2NC(=O)C(F)(F)F)cc1` [Example 183, 1-[(2'-Trifluoroacetamidobiphenyl-4-yl)methyl]-2-butyl-4-chloro-5-hydroxymethylimidazole] returned a minimal effective dose at 10 mg/kg below 10 mg/kg and a minimal effective dose at 100 mg/kg above 100 mg/kg. With `CCCCc1nc(Cl)c(CC(=O)OC)n1Cc1ccc(NC(=O)c2c(F)c(F)c(F)c(F)c2C(=O)O)cc1` [Example 8], in the assay on Renal Hypertensive Rats (tested as sodium salt), the minimal effective dose at 100 mg/kg was above 100 mg/kg.

In the assay with Renal Hypertensive Rats, `CC/C=C/c1nc(Cl)c(C=O)n1Cc1ccc(-c2ccccc2C(=O)O)cc1` [Example 129, 1-[(2'-Carboxybiphenyl-4-yl)methyl]-2-(1-trans-butenyl)-4-chloroimidazole-5-carboxaldehyde] registered a minimal effective dose at 10 mg/kg below 10 mg/kg and a minimal effective dose at 100 mg/kg below 100 mg/kg. With `CCCCc1nc(Br)c(CO)n1Cc1ccc(-c2ccccc2-c2nn[nH]n2)cc1` [Example 124C], in the assay on Renal Hypertensive Rats, the minimal effective dose at 3 mg/kg is below 3 mg/kg and the minimal effective dose at 30 mg/kg is below 30 mg/kg.

In the assay with Renal Hypertensive Rats, `CCCCc1nc(Cl)c(CO)n1Cc1ccc(-c2ccccc2-c2nnn[nH]2)cc1` [Example 89, 2-n-butyl-4-chloro-5-hydroxymethyl-1-[(2'-(1H-tetrazol-5-yl)biphenyl-4-yl)methyl]imidazole] had a minimal effective dose at 10 mg/kg below 10 mg/kg and a minimal effective dose at 100 mg/kg below 100 mg/kg. In the assay on Renal Hypertensive Rats, `CCCCc1nc(I)c(CO)n1Cc1ccc(-c2ccccc2-c2nnn[nH]2)cc1` [Example 124L] returned a minimal effective dose at 3 mg/kg below 3 mg/kg and a minimal effective dose at 30 mg/kg below 30 mg/kg. Regarding `CCCCc1nc(Cl)c(CO)n1Cc1ccc(-c2cccc(C(=O)O)c2)cc1` [Example 85, 1-[(3'-Carboxybiphenyl-4-yl)-methyl]-2-butyl-4-chloro-5-hydroxymethylimidazole], in the assay with Renal Hypertensive Rats, the minimal effective dose at 10 mg/kg was below 10 mg/kg and the minimal effective dose at 100 mg/kg was below 100 mg/kg. Taken in the same sequence, the figures for `CCCCc1nc(Cl)c(CO)n1Cc1ccc(Oc2ccccc2C(=O)O)cc1` [Example 184, 2-Butyl-4-chloro-1-[4-(2-carboxyphenoxy)benzyl]-5-hydroxymethylimidazole] were below 10 mg/kg and above 100 mg/kg. In the case of `CCCSc1ncc(CO)n1Cc1ccc(-c2ccccc2C(=O)O)cc1` [Example 93, 1-[(2'-carboxybiphenyl-4-yl)-methyl]-2-propylthio-5-hydroxymethylimidazole], in the assay on Renal Hypertensive Rats, the minimal effective dose at 10 mg/kg is below 10 mg/kg and the minimal effective dose at 100 mg/kg was above 100 mg/kg.

For `CCCCc1nc(Cl)c(CO)n1Cc1ccc(C(=O)c2ccccc2C(=O)O)cc1` [Example 202, 2-Butyl-1-[4-(2-Carboxybenzoyl)benzyl]-4-chloro-5-(hydroxymethyl)imidazole], in the assay on Renal Hypertensive Rats (tested as sodium salt), the minimal effective dose at 10 mg/kg was below 10 mg/kg and the minimal effective dose at 100 mg/kg is above 100 mg/kg.
